Measurements as given in patent US6344206B1, “Combination of a retinoid with a polyamine polymer” (L'Oreal, priority 1997, dated 2002).

Assay: Test of stability of all-trans-retinol in ethanol during preservation at 50° C. (residual retinol by HPLC)
Format: physicochemical
Details: retinol 0.3% w/v in ethanol without stabilizer, 20 days of storage at 50° C., aerobic medium
Description: The stability of a retinoid is defined in accordance with the present invention by the percentage of retinoid which remains in its original form after the composition containing the retinoid has been stored for a given period and at a given temperature.
The study conditions are the following:
PEI at 0.25, 0.5 and 1% (by weight/volume) in ethanol;
All-trans-retinol marketed by Fluka at 0.3% (by weight/volume) in ethanol;
Aerobic medium with 55 vol % air and 45 vol % ethanol;
Preservation at 50° C. in an oven;
The level of residual retinol after one month of preservation at 50° C. in an aerobic medium (55% of volume of air) is monitored by HPLC (on a Spherisorb ODS1 C18 column) by elution with an H2O/CH3CO2H/CH3CO2NH4/acetonitrile:
The level of residual retinol after two months of storage at 50° C. in an aerobic medium (55 vol % air) is monitored by HPLC (same conditions as in Test 1).
The level of residual retinol after one month of storage at 50° C. in an aerobic medium (55 vol % air) is monitored by HPLC (same conditions as in Test 1).
From an alcoholic solution of retinol at 0.26%, the level of residual retinol after several days of storage of the formulae at 50° C. in aerobic medium (55 vol % of air) is monitored by HPLC. […]

Degradation of retinol: ~99%
Compound: CC1=C(/C=C/C(C)=C/C=C/C(C)=C/CO)C(C)(C)CCC1 [retinol, All-trans-retinol]
